Reference: patent US11993600B2, “Saturated spirocyclics as antiviral agents” (ENANTA PHARMACEUTICALS, INC., priority 2021, dated 2024)

What follows are compounds tested against SARS-CoV-2 3CL-protease (Severe acute respiratory syndrome coronavirus 2 (2019-nCoV) (SARS-CoV-2), UniProt P0DTD1) (assay: SARS-CoV-2 3C-like (3CL) protease fluorescence assay (FRET)). Details: recombinant SARS-CoV-2 3CL-protease 10 nM, 30 min preincubation at RT, substrate 40 μM, run in duplicate.
Assay type: biochemical

Compound	IC50 [nM]
CN(C(=O)c1cc2c(F)cc(F)cc2[nH]1)[C@@H](CC(C)(C)F)C(=O)N1C[C@]2(CCNC2=O)C[C@H]1C#N [Compound 1, N—((S)-1-((3S,5S)-3-cyano-6-oxo-2,7-diazaspiro[4.4]nonan-2-yl)-4-fluoro-4-methyl-1-oxopentan-2-yl)-4,6-difluoro-N-methyl-1H-indole-2-carboxamide]	< 100
CC(C)C[C@@H](C(=O)N1C[C@]2(CCCNC2=O)C[C@H]1C#N)N(C)C(=O)c1cc2c(F)cc(F)cc2[nH]1 [Compound 2, N—((S)-1-((3S,5S)-3-cyano-6-oxo-2,7-diazaspiro[4.5]decan-2-yl)-4-methyl-1-oxopentan-2-yl)-4,6-difluoro-N-methyl-1H-indole-2-carboxamide]	< 100
CN(C(=O)c1cc2c(F)cc(F)cc2[nH]1)[C@@H](CC(C)(C)F)C(=O)N1C[C@]2(CCCNC2=O)C[C@H]1C#N [Compound 3, N—((S)-1-((3S,5S)-3-cyano-6-oxo-2,7-diazaspiro[4.5]decan-2-yl)-4-fluoro-4-methyl-1-oxopentan-2-yl)-4,6-difluoro-N-methyl-1H-indole-2-carboxamide]	< 100
CC(C)C[C@@H](C(=O)N1C[C@]2(CCC3(CC3)NC2=O)C[C@H]1C#N)N(C)C(=O)c1cc2c(F)cc(F)cc2[nH]1 [Compound 4, N—((S)-1-((6S,9S)-9-cyano-5-oxo-4,8-diazadispiro[2.2.4^6.2^3]dodecan-8-yl)-4-methyl-1-oxopentan-2-yl)-4,6-difluoro-N-methyl-1H-indole-2-carboxamide]	< 100
